Source: patent publication US20020136711A1, “Compositions used in human treatment” (priority 1998, published 2002)

Assays:
[1] = tested on: skin flushing or rash; settings: larger doses of niacin
Description: Typically, the form of niacin used may produce a flushing, redness or rash to the skin when consumed in large doses. […] Inositol is molecularly bonded to niacin, and in conjunction therewith serves to slow the absorption of nicotinic acid.

[2] = clinical trials: absorbability of chelated potassium; format: in vivo, human; settings: potassium bonded or chelated with an amino acid or a simple sugar
Description: A preferred aspect of the present invention is the administering of potassium when bonded or chelated with an amino acid or a simple sugar.

SMILES	side-effects (flushing, redness or rash to the skin) at larger doses [1]	absorbability and assimilation into the bloodstream [2]
O=C(O[C@H]1[C@H](OC(=O)c2cccnc2)[C@@H](OC(=O)c2cccnc2)[C@H](OC(=O)c2cccnc2)[C@@H](OC(=O)c2cccnc2)[C@H]1OC(=O)c1cccnc1)c1cccnc1 [niacin inositol hexanicotinate]	no side-effects	–
O=C([O-])[C@H](O)[C@@H](O)[C@H](O)[C@H](O)CO.[K+] [potassium gluconate]	–	better absorbability and assimilation into the bloodstream
